{"source": "ChEMBL document CHEMBL1154199", "about": "“Design, synthesis and evaluation of novel 5,6-dimethoxy-1-oxo-2,3-dihydro-1H-2-indenyl-3,4-substituted phenyl methanone analogues” (Bioorg Med Chem Lett, 2009)"}
{"target": "Acetylcholinesterase (Electrophorus electricus, UniProt O42275)", "sequence (O42275 whole entry)": "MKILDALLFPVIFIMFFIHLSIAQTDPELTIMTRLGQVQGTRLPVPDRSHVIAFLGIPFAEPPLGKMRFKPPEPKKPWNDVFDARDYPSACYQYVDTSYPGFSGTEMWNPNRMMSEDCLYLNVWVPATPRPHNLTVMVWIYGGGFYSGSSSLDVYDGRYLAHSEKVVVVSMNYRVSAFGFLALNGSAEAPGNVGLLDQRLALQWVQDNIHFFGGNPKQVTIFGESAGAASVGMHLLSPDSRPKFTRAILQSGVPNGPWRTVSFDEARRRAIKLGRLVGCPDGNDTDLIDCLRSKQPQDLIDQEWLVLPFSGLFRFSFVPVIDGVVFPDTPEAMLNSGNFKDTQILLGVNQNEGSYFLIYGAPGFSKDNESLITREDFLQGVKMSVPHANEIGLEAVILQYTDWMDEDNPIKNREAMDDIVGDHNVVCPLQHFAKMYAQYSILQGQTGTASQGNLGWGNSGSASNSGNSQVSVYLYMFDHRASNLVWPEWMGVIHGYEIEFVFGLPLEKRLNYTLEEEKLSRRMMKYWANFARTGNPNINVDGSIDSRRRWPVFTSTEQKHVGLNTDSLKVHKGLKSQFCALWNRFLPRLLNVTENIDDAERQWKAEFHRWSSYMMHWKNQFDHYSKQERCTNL", "assay": "(§1) Inhibition of Electrophorus electricus AChE by Ellman's method", "conditions": "not given; call rule not given here"}
{"smiles": "COc1cc2c(cc1OC)C(=O)C(C(=O)c1cccc([N+](=O)[O-])c1)C2", "note": "(centres undefined)", "IC50": "Not Active"}
{"target": "Acetylcholinesterase (Electrophorus electricus, UniProt O42275)", "assay": "as §1", "conditions": "read-out: IC50", "units": {"IC50": "µM"}}
{"smiles": "COc1cc2c(cc1OC)C(=O)C(C(=O)c1c(Cl)cccc1Cl)C2", "note": "(centres undefined)", "IC50": 102}
{"smiles": "COc1cc2c(cc1OC)C(=O)C(C(=O)c1cccs1)C2", "note": "(centres undefined)", "IC50": 8.6}
{"smiles": "COc1cc2c(cc1OC)C(=O)C(C(=O)c1ccc(Br)cc1)C2", "note": "(centres undefined)", "IC50": 45}
{"smiles": "COc1cc2c(cc1OC)C(=O)C(C(=O)c1ccc(C#N)cc1)C2", "note": "(centres undefined)", "IC50": 53}
{"smiles": "COc1cc2c(cc1OC)C(=O)C(C(=O)c1ccc(N(C)C)cc1)C2", "note": "(centres undefined)", "IC50": 29.4}
{"smiles": "COc1ccc(C(=O)C2Cc3cc(OC)c(OC)cc3C2=O)cc1", "note": "(centres undefined)", "IC50": 6.2}
{"smiles": "COc1cc2c(cc1OC)C(=O)C(C(=O)c1ccc(Cl)cc1)C2", "note": "(centres undefined)", "IC50": 41.2}
{"smiles": "COc1cc2c(cc1OC)C(=O)C(C(=O)c1ccccc1)C2", "note": "(centres undefined)", "IC50": 21}
{"smiles": "COc1ccc(C(=O)C2Cc3cc(OC)c(OC)cc3C2=O)cc1OC", "note": "(centres undefined)", "IC50": 4.3}
{"smiles": "COc1cc2c(cc1OC)C(=O)C(C(=O)c1cc(OC)c(OC)c(OC)c1)C2", "note": "(centres undefined)", "IC50": 2.7}
{"smiles": "COc1cc2c(cc1OC)C(=O)C(C(=O)c1ccc(F)cc1)C2", "note": "(centres undefined)", "IC50": 42}
{"smiles": "COc1cc2c(cc1OC)C(=O)C(C(=O)c1ccccc1Cl)C2", "note": "(centres undefined)", "IC50": 64}
{"smiles": "COc1cc2c(cc1OC)C(=O)C(C(=O)c1ccco1)C2", "note": "(centres undefined)", "IC50": 9.4}
